In PMC9230136 (Pharmaceutics, 2022):
Read-outs that look alike come from different tables or passages of the source.

Experiments:
A549 = assay: Antiproliferative assay (resazurin, 72 h); assay type: cell-based, human
Description: (§1) Colon adenocarcinoma (HT-29) and T-cell leukemia (Jurkat) cells were grown in RPMI-1640 medium (Gibco, Milano, Italy). Promyelocytic leukemia cells (HL-60), non-small cell lung carcinoma (A549), cervix carcinoma (HeLa) and breast adenocarcinoma (MDA-MB-231) cells were grown in DMEM medium (Gibco, Milano, Italy). Both media were supplemented with 115 units/mL of penicillin G (Gibco, Milano, Italy), 115 μg/mL of streptomycin (Invitrogen, Milano, Italy) and 10% fetal bovine serum (Invitrogen, Milano, Italy). All the cell lines used were purchased from the American Type Culture Collection (ATCC, Manassas, VA, USA). Stock solutions (10 mM) of the compounds were obtained by dissolving them in DMSO.
(§2) The cells were seeded in 96-well plates at the appropriate density for each cell line. After 24 h, the cells were treated by performing serial 5-fold dilutions of the tested compounds starting from a concentration of 10 μM. All experimental conditions were tested in triplicate for statistical analysis. The plates were incubated for 72 h at 37 °C in a humidified 5% CO2 atmosphere. At the end of the incubation period, 10 μL of 100 μg/mL resazurin solution was added to each well; then, the plate was re-incubated for 3–4 h. The fluorescence of the wells in each plate was monitored using a Spark 10 M spectrophotometer (Tecan Group Ltd., Mannedorf, Switzerland) with a 535 nm excitation wavelength and a 600 nm emission wavelength.

HT-29 = assay: Antiproliferative assay (resazurin, 72 h); assay type: cell-based, human; details: mean ± SE, 72 h
Description: as §1, §2

HeLa = assay: Antiproliferative assay (resazurin, 72 h); assay type: cell-based, human
Description: as §1, §2

Jurkat = assay: Antiproliferative assay (resazurin, 72 h); assay type: cell-based, human; details: for IC50: mean ± SE, 72 h; for fold increase in activity relative to 7ad: Jurkat cells
Description: as §1, §2

MDA-MB-231 = assay: Antiproliferative assay (resazurin, 72 h); assay type: cell-based, human
Description: as §1, §2

[1] = test system: A549, MDA-MB-231, HeLa, HT-29 and Jurkat cancer cell lines; assay: Antiproliferative activity over the panel of cancer cell lines; assay type: cell-based, human; details: for fold reduction in potency (vs 7y): MDA-MB-231 and HT-29 cells
Description: as §1, §2

Bovine brain tubulin [2] = assay: Inhibition of tubulin polymerization; assay type: biochemical; details: for IC50: tubulin at 10 μM, read-out: Tubulin Assembly IC50 ± SD
Description: (§3) Bovine brain tubulin was purified as described previously. To evaluate the effects of the compounds on tubulin assembly in vitro [35], varying concentrations were preincubated with 10 μM tubulin in 0.8 M monosodium glutamate (pH 6.6) at 30 °C and the reaction mixtures then cooled to 0 °C. After addition of GTP, the mixtures were transferred to 0 °C cuvettes in Beckman Coulter (Brea, CA, USA) DU-7400/DU-7500 recording spectrophotometers equipped with electronic temperature controllers and warmed to 30 °C, and the assembly of tubulin was observed turbidimetrically. […] Inhibition of colchicine binding to tubulin was measured as described before, except that the reaction mixtures contained 0.5 μM tubulin and 5 μM each of [^3H]colchicine and test compound. Only one DEAE-cellulose filter was used per sample, and filtration was by gravity.

Bovine brain tubulin [3] = assay: Inhibition of [3H]colchicine binding to tubulin; details: tubulin 0.5 µM, [3H]colchicine 5 µM, compound 5 µM
Description: as §3

[4] = Homo sapiens, A549, Table 1, mean ± SE
[5] = Homo sapiens, HeLa, Table 1, mean ± SE
[6] = Homo sapiens, MDA-MB-231, Table 1, mean ± SE, 72 h
[7] = Homo sapiens, four of the five cell lines, read-out: IC50 values against four of the five cell lines
[8] = Homo sapiens, A549, Table 2, mean ± SE
[9] = Homo sapiens, HeLa, Table 2, mean ± SE
[10] = Homo sapiens, MDA-MB-231, Table 2, mean ± SE, 72 h
[11] = mean over the five cancer cell lines, read-out: mean IC50 (antiproliferative activity)

Row | SMILES | IC50 (A549; [4]) [nM] | IC50 (HT-29; Homo sapiens, HT-29, Table 1) [nM] | IC50 (HeLa; [5]) [nM] | IC50 (Jurkat; Homo sapiens, Jurkat, Table 1) [nM] | IC50 (MDA-MB-231; [6]) [nM] | melting point [°C] | IC50 (A549; [8]) [nM] | IC50 (HT-29; Homo sapiens, HT-29, Table 2) [nM] | IC50 (HeLa; [9]) [nM] | IC50 (Jurkat; Homo sapiens, Jurkat, Table 2) [nM] | IC50 (MDA-MB-231; [10]) [nM] | fold increase in activity relative to 7ad (Jurkat) | fold reduction in potency (vs 7y) [1] | further results
1 | COc1cc(Nc2cc(C)nc3nc(NCc4ccc(F)cc4)nn23)cc(OC)c1OC [Compound 7l, N^2-(4-Fluorobenzyl)-5-methyl-N^7-(3,4,5-trimethoxyphenyl)-[1,2,4]triazolo [1,5-a]pyrimidine-2,7-diamine] | 5890 ± 480 | 1140 ± 90 | 1860 ± 130 | 4680 ± 480 | 61 ± 9 | 156 to 158 | – | – | – | – | – | – | – | fold more potent than 7e (MDA-MB-231; MDA-MB-231 cells): 12 fold; fold less active than 7e ([1]; in four lines): 2-6 fold
2 | COc1cc(Nc2cc(C)nc3nc(NCc4cccc(Cl)c4)nn23)cc(OC)c1OC [Compound 7o, N^2-(3-Chlorobenzyl)-5-methyl-N^7-(3,4,5-trimethoxyphenyl)-[1,2,4]triazolo [1,5-a]pyrimidine-2,7-diamine] | 930 ± 110 | 790 ± 90 | 740 ± 80 | 4720 ± 360 | 60 ± 7 | 136 to 138 | – | – | – | – | – | – | – | fold increase in potency vs 7n (MDA-MB-231; MDA-MB-231 cells): 3 fold; IC50 [1, 7]: < 1000 nM; fold reduction in activity vs 7n ([1]; four of the five cancer cell lines): 9-24 fold
3 | COc1ccc(CNc2nc3nc(C)cc(Nc4cc(OC)c(OC)c(OC)c4)n3n2)cc1 [Compound 7s, N^2-(4-Methoxybenzyl)-5-methyl-N^7-(3,4,5-trimethoxyphenyl)-[1,2,4]triazolo [1,5-a]pyrimidine-2,7-diamine] | 810 ± 80 | 490 ± 60 | 220 ± 30 | 900 ± 90 | 1270 ± 120 | 182 to 184 | – | – | – | – | – | – | – | IC50 (MDA-MB-231; Homo sapiens, MDA-MB-231): 1300 nM; IC50 ([1]; Homo sapiens, MDA-MB-231, against four of the five cell lines (not MDA-MB-231), read-out: IC50 values, range): 217 to 900 nM; IC50 [1, 7]: < 1000 nM; fold reduction in antiproliferative activity vs 7p ([1]; all five lines): 2–5 fold
4 | COc1cc(Nc2cc(C)nc3nc(NCc4ccc(C(F)(F)F)cc4)nn23)cc(OC)c1OC [Compound 7w, 5-Methyl-N^2-(4-(trifluoromethyl)benzyl)-N^7-(3,4,5-trimethoxyphenyl)-[1,2,4]triazolo [1,5-a]pyrimidine-2,7-diamine] | 1280 ± 130 | 590 ± 260 | 520 ± 20 | 960 ± 60 | 560 ± 30 | 174 to 176 | – | – | – | – | – | – | – | IC50 [1, 7]: < 1000 nM
5 | Cc1ccc(CNc2nc3nc(C)cc(Nc4ccc(F)c(Cl)c4)n3n2)cc1 [Compound 8d, N^7-(3-Chloro-4-fluorophenyl)-N^2-(4-methylbenzyl)-5-methyl-[1,2,4]triazolo [1,5-a]pyrimidine-2,7-diamine] | – | – | – | – | – | 178 to 180 | 300 ± 60 | 220 ± 40 | 190 ± 60 | 290 ± 60 | 800 ± 260 | – | – | fold reduction in activity vs 7p ([1]; all cell lines): 1.5–3 fold
6 | Cc1cc(Nc2ccc(F)c(Cl)c2)n2nc(NCc3ccc4c(c3)OCO4)nc2n1 [Compound 8f, N^2-(Benzo[d][1,3]dioxol-5-ylmethyl)-N^7-(3-chloro-4-fluorophenyl)-5-methyl-[1,2,4]triazolo [1,5-a]pyrimidine-2,7-diamine] | – | – | – | – | – | 186 to 188 | 440 ± 50 | 300 ± 30 | 160 ± 90 | 980 ± 60 | 700 ± 160 | 3-4 fold | 2–3 fold | –
7 | Cc1cc(Nc2ccc(F)cc2)n2nc(NCc3ccc4c(c3)OCO4)nc2n1 [Compound 8g, N^2-(Benzo[d][1,3]dioxol-5-ylmethyl)-N^7-(4-fluorophenyl)-5-methyl-[1,2,4]triazolo [1,5-a]pyrimidine-2,7-diamine] | – | – | – | – | – | 168 to 170 | 650 ± 280 | 260 ± 100 | 160 ± 70 | 200 ± 50 | 600 ± 210 | 3-4 fold | 2–3 fold | –
8 | Cc1cc(Nc2ccc(Cl)cc2)n2nc(NCc3ccc4c(c3)OCO4)nc2n1 [Compound 8i, N^2-(Benzo[d][1,3]dioxol-5-ylmethyl)-N^7-(4-chlorophenyl)-5-methyl-[1,2,4]triazolo [1,5-a]pyrimidine-2,7-diamine] | – | – | – | – | – | 156 to 158 | 810 ± 220 | 600 ± 160 | 190 ± 120 | 280 ± 50 | 940 ± 340 | 3-4 fold | 2–3 fold | –
9 | Cc1cc(Nc2ccc(Br)cc2)n2nc(NCc3ccc4c(c3)OCO4)nc2n1 [Compound 8l, N^2-(Benzo[d][1,3]dioxol-5-ylmethyl)-N^7-(4-bromophenyl)-5-methyl-[1,2,4]triazolo [1,5-a]pyrimidine-2,7-diamine] | – | – | – | – | – | 182 to 184 | 430 ± 180 | 420 ± 20 | 220 ± 40 | 260 ± 50 | 1270 ± 450 | 3-4 fold | 2–3 fold | –
10 | Cc1cc(Nc2ccc(Cl)cc2)n2nc(NCCCc3ccccc3)nc2n1 [Compound 8s] | – | – | – | – | – | – | – | – | – | – | – | – | – | IC50 (A549; Table 2, mean ± SE): 70 ± 10 nM; IC50 (HT-29; Table 2): 53 ± 1 nM; IC50 (HeLa; Table 2, mean ± SE): 48 ± 1 nM; IC50 (Jurkat; Table 2): 83 ± 20 nM; IC50 (MDA-MB-231; Table 2, mean ± SE, 72 h): 200 ± 70 nM; IC50 [1, 11]: 91 nM; fold more potent than CA-4, tubulin polymerization (Bovine brain tubulin [2]): about 2 fold; IC50 (Bovine brain tubulin [2]): 390 ± 10 nM; Colchicine Binding % Inhibition ± SD (Bovine brain tubulin [3]): 88 ± 3%
11 | Cc1cc(Nc2ccc(Br)cc2)n2nc(NCCCc3ccccc3)nc2n1 [Compound 8u] | – | – | – | – | – | – | – | – | – | – | – | – | – | IC50 (A549; Table 2, mean ± SE): 48 ± 10 nM; IC50 (HT-29; Table 2): 83 ± 20 nM; IC50 (HeLa; Table 2, mean ± SE): 22 ± 10 nM; IC50 (Jurkat; Table 2): 150 ± 14 nM; IC50 (MDA-MB-231; Table 2, mean ± SE, 72 h): 120 ± 40 nM; IC50 [1, 11]: 83 nM; fold more potent than CA-4, tubulin polymerization (Bovine brain tubulin [2]): about 2 fold; IC50 (Bovine brain tubulin [2]): 380 ± 20 nM; Colchicine Binding % Inhibition ± SD (Bovine brain tubulin [3]): 84 ± 2%
12 | C#Cc1cccc(Nc2cc(C)nc3nc(NCCCc4ccccc4)nn23)c1 [Compound 8v] | – | – | – | – | – | – | – | – | – | – | – | – | – | IC50 (A549; Table 2, mean ± SE): 110 ± 30 nM; IC50 (HT-29; Table 2): 83 ± 20 nM; IC50 (HeLa; Table 2, mean ± SE): 69 ± 10 nM; IC50 (Jurkat; Table 2): 160 ± 10 nM; IC50 (MDA-MB-231; Table 2, mean ± SE, 72 h): 350 ± 10 nM; IC50 (Bovine brain tubulin [2]): 430 ± 50 nM; Colchicine Binding % Inhibition ± SD (Bovine brain tubulin [3]): 70 ± 3%
